# Data: patent publication US9604964B2, “Dihydropyrazole GPR40 modulators” (BRISTOL-MYERS SQUIBB COMPANY, priority 2012, dated 2017)
# pEC50: −log10 of the molar value.
# Molecular target: human GPR40 (Homo sapiens, UniProt O14842)
# Assay: FDSS-based intracellular calcium assay (Human GPR40 in vitro assay)
# Assay type: cell-based
# Parameters: 3xFLAG; expressed in transfected cells
# Details: intracellular Ca2+ response, cells expressing GPR40; read-out: hGPR40 EC50
# Description: FDSS-based Intracellular Calcium Assay
# Compounds are dissolved in DMSO and diluted to desired concentrations with assay buffer and added to the cells as 3× solution (20 μL per well). Run fluorescence/luminescence reader FDSS (Hamamatsu) to read intracellular Ca^2+ response.
# Chain of human GPR40 (O14842 whole entry): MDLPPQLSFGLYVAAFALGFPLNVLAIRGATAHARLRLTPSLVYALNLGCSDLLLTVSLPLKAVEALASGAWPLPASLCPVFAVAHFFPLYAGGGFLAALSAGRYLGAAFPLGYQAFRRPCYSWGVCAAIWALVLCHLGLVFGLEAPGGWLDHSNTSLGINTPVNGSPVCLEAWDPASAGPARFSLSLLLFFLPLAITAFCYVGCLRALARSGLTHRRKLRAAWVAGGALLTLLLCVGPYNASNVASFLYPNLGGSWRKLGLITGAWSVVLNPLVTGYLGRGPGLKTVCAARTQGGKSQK
row,SMILES,pEC50
1,"COc1ccc(F)c(N2C3CCC2CC(Oc2ccc(N4N=C(C(F)(F)F)[C@@H](C)[C@@H]4CC(=O)O)cc2)C3)c1 (stereo partly drawn) [Example 2, 2-((4S,5S)-1-(4-((8-(2-fluoro-5-methoxyphenyl)-8-azabicyclo[3.2.1]octan-3-yl)oxy)phenyl)-4-methyl-3-(trifluoromethyl)-4,5-dihydro-1H-pyrazol-5-yl)acetic acid]",6.19
2,"C[C@@H]1C(C(F)(F)F)=NN(c2ccc(OC3CCN(c4cc(OC5CCCC5)cc(F)c4F)CC3)cc2)[C@H]1CC(=O)O [Example 19, 2-((4S,5S)-1-(4-((1-(5-(cyclopentyloxy)-2,3-difluorophenyl)piperidin-4-yl)oxy)phenyl)-4-methyl-3-(trifluoromethyl)-4,5-dihydro-1H-pyrazol-5-yl)acetic acid]",5.32
3,"COc1ccc(F)c(N2C[C@@H]3C[C@H]2CC3Oc2ccc(N3N=C(C(F)(F)F)[C@@H](C)[C@@H]3CC(=O)O)cc2)c1 (stereo partly drawn) [Example 70, 2-((4S,5S)-1-(4-(((1S,4S)-2-(2-fluoro-5-methoxyphenyl)-2-azabicyclo[2.2.1]heptan-5-yl)oxy)phenyl)-4-methyl-3-(trifluoromethyl)-4,5-dihydro-1H-pyrazol-5-yl)acetic acid]",6.00
4,"CC1CN(c2cc(OCC(F)(F)F)ccc2F)CCC1Oc1ccc(N2N=C(C(F)(F)F)[C@@H](C)[C@@H]2CC(=O)O)cc1 (stereo partly drawn) [Example 11, 2-((4S,5S)-1-(4-((1-(2-fluoro-5-(2,2,2-trifluoroethoxy)phenyl)-3-methylpiperidin-4-yl)oxy)phenyl)-4-methyl-3-(trifluoromethyl)-4,5-dihydro-1H-pyrazol-5-yl)acetic acid]",5.96
5,"COc1ccc(F)c(N2C(=O)[C@H]3C[C@@H]2CC3Oc2ccc(N3N=C(C(F)(F)F)[C@@H](C)[C@@H]3CC(=O)O)cc2)c1 (stereo partly drawn) [Example 67, 2-((4S,5S)-1-(4-(((1R,4S)-2-(2-fluoro-5-methoxyphenyl)-3-oxo-2-azabicyclo[2.2.1]heptan-5-yl)oxy)phenyl)-4-methyl-3-(trifluoromethyl)-4,5-dihydro-1H-pyrazol-5-yl)acetic acid]",5.19
6,"CCOc1ccc(F)c(N2CCC(Cc3ccc(N4N=C(C(F)(F)F)[C@@H](C)[C@@H]4CC(=O)O)cc3)C(C)C2)c1 (single isomer, unassigned) [Example 3 (Isomer 2)]",6.33
7,"COc1cc(N2CCC(Oc3ccc(N4N=C(C(F)(F)F)[C@@H](C)[C@@H]4CC(=O)O)cn3)C(C)C2)c(Cl)cn1 (single isomer, unassigned) [Example 103 Isomer 1]",6.27
8,"COc1ccc(F)c(N2C[C@H]3C[C@@H]2CC3Oc2ccc(N3N=C(C(F)(F)F)[C@@H](C)[C@@H]3CC(=O)O)cc2)c1 (stereo partly drawn) [Example 69, 2-((4S,5S)-1-(4-(((1R,4R)-2-(2-fluoro-5-methoxyphenyl)-2-azabicyclo[2.2.1]heptan-5-yl)oxy)phenyl)-4-methyl-3-(trifluoromethyl)-4,5-dihydro-1H-pyrazol-5-yl)acetic acid]",6.07
9,"C[C@@H]1C(C(F)(F)F)=NN(c2ccc(OC3CCN(c4nccs4)CC3)cc2)[C@H]1CC(=O)O [Example 13, 2-((4S,5S)-4-methyl-1-(4-((1-(thiazol-2-yl)piperidin-4-yl)oxy)phenyl)-3-(trifluoromethyl)-4,5-dihydro-1H-pyrazol-5-yl)acetic acid]",5.77
10,"CCOc1ccc(F)c(N2CCC(Oc3ccc(N4N=C(C#N)C(C)C4CC(=O)O)cc3)CC2)c1 (single isomer, unassigned) [Example B5 Isomer 1, 2-(3-cyano-1-(4-((1-(5-ethoxy-2-fluorophenyl)piperidin-4-yl)oxy)phenyl)-4-methyl-4,5-dihydro-1H-pyrazol-5-yl)acetic acid]",6.41
11,"CCOc1ccc(F)c(N2CCC(Cc3ccc(N4N=C(C(F)(F)F)[C@@H](C)[C@@H]4CC(=O)O)cc3)C(C)C2)c1 (single isomer, unassigned) [Example 3 (Isomer 3)]",5.94
12,"COc1ccc(F)c(N2CCCC(Oc3ccc(N4N=C(C(F)(F)F)[C@@H](C)[C@@H]4CC(=O)O)cc3)CC2)c1 (stereo partly drawn) [Example 23, 2-((4S,5S)-1-(4-((1-(2-fluoro-5-methoxyphenyl)azepan-4-yl)oxy)phenyl)-4-methyl-3-(trifluoromethyl)-4,5-dihydro-1H-pyrazol-5-yl)acetic acid]",5.52

# More lines, now with the values ahead:
row,pEC50,SMILES
1,5.34,"C[C@@H]1C(C(F)(F)F)=NN(c2ccc(OC3CCN(c4cc(-n5cccn5)ccc4F)CC3)cc2)[C@H]1CC(=O)O [Example B20, 2-((4S,5S)-1-(4-((1-(2-Fluoro-5-(1H-pyrazol-1-yl)phenyl)piperidin-4-yl)oxy)phenyl)-4-methyl-3-(trifluoromethyl)-4,5-dihydro-1H-pyrazol-5-yl)acetic acid]"
2,5.31,"CCOc1ccc(F)c(N2CCC(Oc3ccc(N4N=C(C#N)C(C)C4CC(=O)O)cc3)CC2)c1 (single isomer, unassigned) [Example B5, Isomer 2, 2-(3-cyano-1-(4-((1-(5-ethoxy-2-fluorophenyl)piperidin-4-yl)oxy)phenyl)-4-methyl-4,5-dihydro-1H-pyrazol-5-yl)acetic acid]"
3,5.61,"COc1cc(N2CC[C@@H](Oc3ccc(N4N=C(C(F)(F)F)[C@@H](C)[C@@H]4CC(=O)O)cc3)[C@H](CO)C2)c(Cl)cn1 [Example B1, 2-((4S,5S)-1-(4-(((3S,4R)-1-(5-chloro-2-methoxypyridin-4-yl)-3-(hydroxymethyl)piperidin-4-yl)oxy)phenyl)-4-methyl-3-(trifluoromethyl)-4,5-dihydro-1H-pyrazol-5-yl)acetic acid]"
4,6.40,"CCOc1ccc(F)c(N2CCC(Oc3ccc(N4N=C(C#N)C(C)C4CC(=O)O)cc3)C(C)C2)c1 (single isomer, unassigned) [Example B7, Isomer 1, 2-(3-Cyano-1-(4-((1-(5-ethoxy-2-fluorophenyl)-3-methylpiperidin-4-yl)oxy)phenyl)-4-methyl-4,5-dihydro-1H-pyrazol-5-yl)acetic acid]"
5,5.88,"C[C@@H]1C(C(F)(F)F)=NN(c2ccc(OC3CCN(S(=O)(=O)C4CCCCC4)CC3)cc2)[C@H]1CC(=O)O [Example B22, 2-((4S,5S)-1-(4-((1-(cyclohexylsulfonyl)piperidin-4-yl)oxy)phenyl)-4-methyl-3-(trifluoromethyl)-4,5-dihydro-1H-pyrazol-5-yl)acetic acid]"
6,5.10,C[C@@H]1C(C(F)(F)F)=NN(c2ccc(OC3CCN(S(=O)(=O)c4ccccc4C#N)CC3)cc2)[C@H]1CC(=O)O [Example B21]
7,6.24,"C[C@@H]1C(C(F)(F)F)=NN(c2ccc(OC3CCN(c4cc5c(cc4Cl)OCO5)CC3)cc2)[C@H]1CC(=O)O [Example B14, 2-((4S,5S)-1-(4-((1-(6-Chlorobenzo[d] [1,3]dioxol-5-yl)piperidin-4-yl)oxy)phenyl)-4-methyl-3-(trifluoromethyl)-4,5-dihydro-1H-pyrazol-5-yl)acetic acid]"
8,5.28,"Cc1nc2ccc(N3CCC(Oc4ccc(N5N=C(C(F)(F)F)[C@@H](C)[C@@H]5CC(=O)O)cc4)CC3)cc2o1 [Example B18, 2-((4S,5S)-4-Methyl-1-(4-((1-(2-methylbenzo[d]oxazol-6-yl)piperidin-4-yl)oxy)phenyl)-3-(trifluoromethyl)-4,5-dihydro-1H-pyrazol-5-yl)acetic acid]"
9,6.15,"COc1cc(N2CC(COc3ccc(N4N=C(C(F)(F)F)[C@@H](C)[C@@H]4CC(=O)O)cc3)C2)c(Cl)cn1 [Example B33, 2-((4S,5S)-1-(4-((1-(5-chloro-2-methoxypyridin-4-yl)azetidin-3-yl)methoxy)phenyl)-4-methyl-3-(trifluoromethyl)-4,5-dihydro-1H-pyrazol-5-yl)acetic acid]"
10,5.24,"COc1cccc(N2CC3CCC(C2)C3Cc2ccc(N3N=C(C(F)(F)F)[C@@H](C)[C@@H]3CC(=O)O)cc2)c1 (stereo partly drawn) [Example B12, 2-((4S,5S)-1-(4-(((1R,5S,8S)-3-(3-methoxyphenyl)-3-azabicyclo[3.2.1]octan-8-yl)methyl)phenyl)-4-methyl-3-(trifluoromethyl)-4,5-dihydro-1H-pyrazol-5-yl)acetic acid]"
11,5.43,"COc1nc(N2CCC(Oc3ccc(N4N=C(C(F)(F)F)[C@@H](C)[C@@H]4CC(=O)O)cc3)CC2)ncc1F [Example B29, 2-((4S,5S)-1-(4-((1-(5-Fluoro-4-methoxypyrimidin-2-yl)piperidin-4-yl)oxy)phenyl)-4-methyl-3-(trifluoromethyl)-4,5-dihydro-1H-pyrazol-5-yl)acetic acid]"
12,5.31,"COc1cc(N2CCC(Oc3ccc(N4N=C(C#N)C(C)C4CC(=O)O)cc3)C(C)C2)c(Cl)cn1 (single isomer, unassigned) [Example B6, Isomer 2, 2-(1-(4-((1-(5-chloro-2-methoxypyridin-4-yl)-3-methylpiperidin-4-yl)oxy)phenyl)-3-cyano-4-methyl-4,5-dihydro-1H-pyrazol-5-yl)acetic acid]"
13,5.32,"C[C@@H]1C(C(F)(F)F)=NN(c2ccc(OCC3CN(c4ccc5c(c4)OCO5)C3)cc2)[C@H]1CC(=O)O [Example B34, 2-((4S,5S)-1-(4-((1-(benzo[d] [1,3]dioxol-5-yl)azetidin-3-yl)methoxy)phenyl)-4-methyl-3-(trifluoromethyl)-4,5-dihydro-1H-pyrazol-5-yl)acetic acid]"
14,5.58,"COc1cc(N2CCC(Cc3ccc(N4N=C(C(F)(F)F)[C@@H](C)[C@@H]4CC(=O)O)cc3)CC2)ccn1 [Example B9, 2-((4S,5S)-1-(4-((1-(2-methoxypyridin-4-yl)piperidin-4-yl)methyl)phenyl)-4-methyl-3-(trifluoromethyl)-4,5-dihydro-1H-pyrazol-5-yl)acetic acid]"
15,6.52,"COc1cc(N2CCC(Oc3ccc(N4N=C(C#N)C(C)C4CC(=O)O)cc3)C(C)C2)c(Cl)cn1 (single isomer, unassigned) [Example B6, Isomer 1, 2-(1-(4-((1-(5-chloro-2-methoxypyridin-4-yl)-3-methylpiperidin-4-yl)oxy)phenyl)-3-cyano-4-methyl-4,5-dihydro-1H-pyrazol-5-yl)acetic acid]"
